Results published in patent publication US20050159345A1 (Boehringer Ingelheim International GmbH, priority 2002, published 2005).

What was measured:
HCV replicon 1a = test: Cell-based HCV 1a RNA replicon assay; settings: Hepatitis C virus, 72 h; Huh-7-derived replicon cells, 3 day incubation, HCV RNA by RT-PCR
Procedure: (§1) These cells were used to establish a sensitive HCV RNA replication cell-based assay for testing candidate test compounds.
(§2) Huh7 cells that stably maintain a subgenomic HCV replicon were established as previously described (Lohman et al. 1999; WO 02/052015). The cells were seeded into a 96 well cell culture cluster at 1×10^4 cells per well in DMEM complemented with 10% FBS, PenStrep (Life Technologies) and […] Geneticin. Cells were incubated in a 5% CO2 incubator at 37° C. until addition of various concentrations of the test compound.
(§3) The test compound was prepared for use in the assay as follows. The test compound in 100% DMSO was added diluted in assay Medium for a final DMSO concentration of 0.5% and the solution was sonicated for 15 min and filtered through a […] Millipore Filter Unit. Serial dilutions of the test compounds were prepared using Assay Medium (containing 0.5% DMSO).
(§4) Cell culture medium was aspirated from the 96-well plate containing the cells and the appropriate dilution of test compound in assay medium was transferred to independent wells of the cell culture plate which was incubated at 37° with 5% CO2.
(§5) Following a 3 day-incubation period, the cells were washed with PBS and total cellular RNA was extracted with the RNeasy Mini Kit® and Qiashredder® from Qiagen. RNA from each well was eluted in 50 μL of H2O. RNA was quantified by optical density at 260 nm on the Cary 1E® UV-Visible spectrophotometer. The HCV RNA replicon copy number was evaluated by real-time RT-PCR with the Abi Prism® 7700 Sequence Detection System. The TAQMAN E® RT-PCR kit provides a system for the detection and analysis of RNA. Direct detection of the reverse transcription polymerase chain reaction (RT-PCR) product with no downstream processing was accomplished by monitoring the increase in fluorescence of a dye-labeled DNA probe. The nucleotide sequence of both primers and probe was located in the 5′ region of the HCV genome. The replicon copy number was then evaluated using a standard curve made with known amounts of replicon copy (supplemented with 50 ng of wild type Huh-7 RNA) assayed in the same reaction mix. The following thermal cycle parameters were used for the RT-PCR reaction on the ABI Prism® 7700 Sequence Detection System. Conditions were optimized for HCV detection. Quantification is based on the threshold cycle, where the amplification plot crosses a defined fluorescence threshold. Comparison of the threshold cycles provides a highly sensitive measure of relative template concentration in different samples. Monitoring during early cycles, when PCR fidelity is at its highest, provides precise data for accurate quantification. The relative template concentration can be converted to real numbers by using the standard curve of HCV with known number of copy.
(§6) The level of inhibition (% inhibition) of each well containing test compound was calculated with the following equation (CN═HCV Replicon copy number): [formula]
(§7) The calculated % inhibition values were then used to determine EC50, slope factor (n) and maximum inhibition (Imax) by the non-linear regression routine NLIN procedure of SAS using the following equation: [formula]

HCV replicon 1b = test: Cell-based HCV 1b RNA replicon assay; settings: Hepatitis C virus, 72 h; Huh-7-derived replicon cells, 3 day incubation, HCV RNA by RT-PCR
Procedure: as §1, §2, §3, §4, §5, §6, §7

Row | Compound | EC50 (HCV replicon 1a) [nM] | EC50 (HCV replicon 1b) [nM]
1 | COc1ccc2c(O[C@@H]3C[C@H]4C(=O)N[C@]5(C(=O)NS(=O)(=O)C6CC6)CC5/C=C\CCCCC[C@H](NC(=O)OC5CCCC5)C(=O)N4C3)cc(-c3csc(NC(C)C)n3)nc2c1 (stereo partly drawn) | 0.7 | 1.1
2 | COc1ccc2c(O[C@@H]3C[C@H]4C(=O)N[C@]5(C(=O)NS(C)(=O)=O)CC5/C=C\CCCCC[C@H](NC(=O)OC5CCCC5)C(=O)N4C3)cc(-c3csc(NC(C)C)n3)nc2c1 (stereo partly drawn) [VII] | 3.2 | 3.3
3 | COc1ccc2c(O[C@@H]3C[C@H]4C(=O)N[C@]5(C(=O)NS(=O)(=O)c6ccccc6)CC5/C=C\CCCCC[C@H](NC(=O)OC5CCCC5)C(=O)N4C3)cc(-c3csc(NC(C)C)n3)nc2c1 (stereo partly drawn) [VI] | 2.2 | 3
